Patent publication US6664241B2, “Water-soluble amide derivatives of polyene macrolides and preparation and uses thereof” (Micrologix Biotech Inc., priority 2000, dated 2003)
In brackets after ≈: the same amount, converted by molar mass.

Legend:
C. albicans [1] = test: 7 day kidney bioburden evaluation in neutropenic mice challenged with C. albicans; type: in vivo, Swiss-Webster mice; conditions: Candida albicans, ip, 168 h, intraperitoneally once daily for 7 days, 50% of animals with 2 log10 reduction in kidney CFU
Method: A variety of the compounds synthesized as described in Section 5, supra, were tested in various in vivo assays, as described below. The results of the various assays are provided in TABLE 3, presented at the end of this section. In all of the in vivo assays described, the test compounds, in the form of the aspartate salts, were formulated in an aqueous vehicle (5% mannitol in sterile water; OSMITROL, Baxter Healthcare, Deerfield, Ill.), followed by appropriate dilutions. The formulations were prepared fresh before dosing.
AmB and AME were also tested for comparison. For AmB, the commercially available FUNGIZONE (Bristol-Meyers Squibb Co.) was used. Reported values are based upon the weight of the AmB active ingredient, not on the basis of the weight of the FUNGIZONE powder. AME was formulated in OSMITROL as described for the test compounds.
Various polyene macrolide amide derivatives of the invention were evaluated for their protective effect when administered intraperitoneally once daily for 7 days to neutropenic mice challenged with live C. albicans.
Swiss-Webster mice (Simonsen Laboratories, Gilroy, Calif.) were made neutropenic by intravenous administration of 5-fluorouracil (150 mg/kg) on study day −1. On study day 0, all mice received by intravenous injection a single inoculum (0.2 mL) containing as estimated 5.0×10^4 CFU of C. albicans. The day of inoculation was designated as study day 0. Beginning the day after infection (on study day 1), mice were treated intraperitoneally with vehicle alone or formulated test compound, once daily for 7 consecutive days.
The mice were observed daily from study day 1 through study day 8 (1 day after the last dose). Mice found dead or euthanized in extremis were removed from the study without further processing. Surviving mice were euthanized by inhalation of CO2 on study day 8 and both kidneys from each mouse were removed. Each pair of removed kidneys was homogenized in 3 mL of ice-cold PBS containing 10% glycerol. A portion of each homogenate was used to determine log10 CFU per kidney using SDA plates (48 hours of incubation at 30° C.). Kidney log10 CFU data were analyzed using a t-test. The criterion for a statistically significant response was set at p<0.01.
For comparison, the results for AmB and AME are also provided. Efficacy was defined for individual animals as a greater than 2 log10 reduction in kidney CFU relative to the mean vehicle control value.

C. albicans [2] = test: Minimum Inhibitory Concentrations (MICs) against C. albicans, NCCLS M27-A broth dilution; type: cell-based; conditions: Candida albicans, read-out: MIC
Method: For each compound synthesized, Minimum Inhibitory Concentrations (MICs) against C. albicans were determined as described in Reference Method for Broth Dilution Antifungal Susceptibility Testing of Yeasts, Approved Standard, NCCLS document M27-A (ISBN 1-56238-328-0), NCCLS, 940 West Valley Road, Suite 1400, Wayne, Pa. 19087, 1997.

C[C@@H]1[C@H](O)[C@@H](C)/C=C/C=C/C=C/C=C/C=C/C=C/C=C/[C@H](O[C@@H]2O[C@H](C)[C@@H](O)[C@H](N)[C@@H]2O)C[C@@H]2O[C@](O)(C[C@@H](O)C[C@@H](O)[C@H](O)CC[C@@H](O)C[C@@H](O)CC(=O)O[C@H]1C)C[C@H](O)[C@H]2C(=O)O [AMB, amphotericin B, reference compound]
ED50 (C. albicans [1]): 0.3 mg/kg | MIC (C. albicans [2]): 0.125 to 0.25 µg/mL (≈ 0.135 to 0.271 µM)
